Data: US20250263436A1, “BROAD-SPECTRUM ANTIVIRAL DRUG FOR ENTEROVIRUS, AND APPLICATION” (WUHAN INSTITUTE OF VIROLOGY, CHINESE ACADEMY OF SCIENCES, priority 2020, published 2025)
“And” between values parts separate entries of the source, which are not always exact repeats. Equal entries are not always repeated.

Columns and labels:
EV71 [1] = experiment: Inhibition of EV71 in Vero cells (viral RNA, qRT-PCR); format: cell-based, enterovirus 71 (EV71); conditions: anti-EV71 in Vero cells
Experimental: (§1) (1) Different cells were plated in a 24-well plate.
(§2) (2) When the cells grew to a confluence of 70%-80%, the DMEM medium containing 10% serum was replaced with a DMEM medium containing 2% serum (the DMEM medium containing 2% serum was added in each well at an amount of 0.5 mL), and 5 μL of EV71 virus of 1×10^6 PFU/mL was added to each well.
(§3) (3) After 1 h, different polypeptides (RQ or control TAT) with final concentrations of 0.3125 μM, 0.625 μM, 1.25 μM, 2.5 μM, and 5 μM were added respectively. The group without polypeptide added was used as a control.
(§4) (4) The samples were collected 24 h after the infection of EV71 virus, and RNA was extracted with the total RNA extraction kit.
(§5) (5) The supernatant was discarded, then 350 μL of TRK lysate was added to each well, and the plate was put on a shaker for 5 min.
(§6) (6) 350 μL of 70% ethanol (DEPC) was added to each well, and then the plate was put on a shaker for 5 min.
(§7) (7) The solution in each well was transferred to a RNA extraction column for 1 min of centrifugation at 12000 g.
(§8) (8) The solution obtained in the recovery tube was reloaded on the column again for 1 min of centrifugation at 12000 g.
(§9) (9) RNA washing buffer 1 was added in the column for 30 s of centrifugation at 12000 g.
(§10) (10) RNA washing buffer 2 was added in the column for 1 min of centrifugation at 12000 g.
(§11) (11) Step (10) was repeated.
(§12) (12) The column alone was centrifuged at 12000 g for 2 min to completely remove the residual RNA washing buffer.
(§13) (13) 50 μL of DEPC water was added to the column for 2 min of centrifugation at 12000 g.
(§14) (14) 2 μL of RNA sample was subjected to a fluorescence quantitative experiment using the one step qRT-PCR kit.
(1) Vero E6 cells were plated in a 24-well plate.
(3) After 1 h, different polypeptides (LQ or SQ) with final concentrations of 0.3125 μM, 0.625 μM, 1.25 μM, 2.5 μM, and 5 μM were added respectively. The group without polypeptide added was used as a control.

[2] = Cytotoxicity of polypeptides in Vero cells (CCK-8); format: cell-based; conditions: for CC50 at 24 h: African green monkey, Table 1 (Vero cells); for viability at 24 h, 0.073242 µM: polypeptide 0.073242 μM; for viability at 24 h, 0.146484 µM: polypeptide 0.146484 μM; for viability at 24 h, 0.292969 µM: polypeptide 0.292969 μM; for viability at 24 h, 0.585938 µM: polypeptide 0.585938 μM; for viability at 24 h, 1.17188 µM: polypeptide 1.171875 μM; for viability at 24 h, 2.34375 µM: polypeptide 2.34375 μM; for viability at 24 h, 4.6875 µM: polypeptide 4.6875 μM; for viability at 24 h, 9.375 µM: polypeptide 9.375 μM; for viability at 24 h, 18.75 µM: polypeptide 18.75 μM; for viability at 24 h, 150 µM: polypeptide 150 μM
Experimental: (§15) Therefore, this standard was testified by cytotoxicity assay, and the cells without any treatment were used as a control group.
(§16) (1) Vero cells were plated in a 96-well plate at 100 μL per well.
(§17) (2) When the cells grew to a confluence of 70%-80%, the DMEM medium containing 10% serum was replaced with a DMEM medium containing 2% serum, and a certain concentration gradient of polypeptide RQ or LQ or SQ was added, so that the final concentrations of the polypeptide in the wells were 0.073242 μM, 0.146484 μM, 0.292969 μM, 0.585938 μM, 1.171875 μM, 2.34375 μM, 4.6875 μM, 9.375 μM, 18.75 μM, 37.5 μM, 75 μM and 150 μM, respectively.
(§18) (3) The samples were collected 24 h after the addition of the polypeptide, and then 10 μL of live cell detection reagent CCK-8 was added to each well and mixed well.
(§19) (4) The plate was placed at 37° C. for 2 h.
(§20) (5) The absorbance value at OD450 was detected by a microplate reader.
(§21) The CC50 of each polypeptide was calculated taking the cell viability of untreated cells as 100%.

Vero cells = experiment: Cytotoxicity of polypeptides in Vero cells (CCK-8); format: cell-based; conditions: Vero cells, 24 h
Experimental: as §15, §16, §17, §18, §19, §20, §21

EV71 [3] = experiment: Inhibition of EV71 in RD cells (viral RNA, qRT-PCR); format: cell-based, enterovirus 71 (EV71); conditions: EV71, 24 h after infection
Experimental: as §1, §2, §3, §4, §5, §6, §7, §8, §9, §10, §11, §12, §13, §14
(3) After 1 h, different polypeptides (RQ or control TAT) with final concentrations of 0.3125 μM, 0.625 μM, 1.25 μM, 2.5 μM and 5 μM were added respectively. The group without polypeptide added was used as a control.

[4] = Vero cells, 24 h, read-out: Cell viability (%)

Molecule | IC50 (EV71 [1]) | CC50 at 24 h [2] | viability at 24 h, 0.073242 µM [2, 4] | viability at 24 h, 0.146484 µM [2, 4] | viability at 24 h, 0.292969 µM [2, 4] | viability at 24 h, 0.585938 µM [2, 4] | viability at 24 h, 1.17188 µM [2, 4] | viability at 24 h, 2.34375 µM [2, 4] | viability at 24 h, 4.6875 µM [2, 4] | viability at 24 h, 9.375 µM [2, 4] | viability at 24 h, 18.75 µM [2, 4] | viability at 24 h, 150 µM [2, 4] | Cell viability (%) (Vero cells; polypeptide 0.073242 μM) | Cell viability (%) (Vero cells; polypeptide 0.146484 μM) | Cell viability (%) (Vero cells; polypeptide 0.292969 μM) | Cell viability (%) (Vero cells; polypeptide 0.585938 μM) | Cell viability (%) (Vero cells; polypeptide 1.171875 μM) | Cell viability (%) (Vero cells; polypeptide 2.34375 μM) | Cell viability (%) (Vero cells; polypeptide 4.6875 μM) | Cell viability (%) (Vero cells; polypeptide 9.375 μM) | further results
CC[C@H](C)[C@H](NC(=O)[C@H](C)NC(=O)[C@H](CO)NC(=O)[C@H](CCCNC(=N)N)NC(=O)[C@H](CC(N)=O)NC(=O)[C@H](CC(N)=O)NC(=O)[C@H](Cc1ccc(O)cc1)NC(=O)[C@H](CCC(=O)O)NC(=O)[C@H](CCCNC(=N)N)NC(=O)[C@@H](NC(=O)[C@H](CC(C)C)NC(=O)CNC(=O)[C@H](CO)NC(=O)CNC(=O)[C@H](CCCNC(=N)N)NC(=O)[C@H](CCCNC(=N)N)NC(=O)[C@H](CCCNC(=N)N)NC(=O)[C@H](CCC(N)=O)NC(=O)[C@H](CCCNC(=N)N)NC(=O)[C@H](CCCNC(=N)N)NC(=O)[C@H](CCCCN)NC(=O)[C@H](CCCCN)NC(=O)[C@H](CCCNC(=N)N)NC(=O)CNC(=O)[C@@H](N)Cc1ccc(O)cc1)[C@@H](C)CC)C(=O)NCC(=O)N[C@@H](CC(N)=O)C(=O)N[C@H](C(=O)N[C@H](C(=O)N[C@@H](CCC(=O)O)C(=O)N[C@@H](C)C(=O)N[C@@H](CC(C)C)C(=O)N[C@@H](Cc1ccccc1)C(=O)N[C@@H](CCC(N)=O)C(=O)O)[C@@H](C)CC)[C@@H](C)O [LQ] | 2.26 µM | > 150 µM | 100% | 103% | 112% | 110% | 111% | 105% | 111% | 114% | 109% | 72.2% | 105.9% and 97.02% | 104.7744% and 101.9913% | 106.5265% and 104.7619% | 110.5563% and 108.0087% | 115.1555% and 110.4762% | 106.3075% and 107.1861% | 104.8489% and 112.5108% | 119.5795% and 113.5931% | viability at 24 h, 37.5 µM ([2]; Vero cells, polypeptide 37.5 μM, 24 h, read-out: Cell viability (%)): 117%; Cell viability (%) (Vero cells; polypeptide 18.75 μM): 115.6373% and 110.3247%; Cell viability (%) (Vero cells; polypeptide 37.5 μM): 99.1853% and 97.1429%; Cell viability (%) (Vero cells; polypeptide 75 μM): 108.2318% and 87.6084% and 90.8658%; Cell viability (%) (Vero cells; polypeptide 150 μM): 83.0968% and 80.9091%
MBP-CVA16 2C protein |  |  |  |  |  |  |  |  |  |  |  |  |  |  |  |  |  |  |  |  | helicase activity (unwinding of HEX-labeled dsRNA substrate, gel electrophoresis) (polypeptide RQ): RQ inhibited the helicase activity of CVA16 2C in a dose-dependent manner
AC-qflaeitngiasrnnyergsgrrrqrrkkrgy-NH2 [RQ-DRI] |  |  |  |  |  |  |  |  |  |  |  |  |  |  |  |  |  |  |  |  | Percentage of viral RNA in RD cells (%) (EV71 [3]; polypeptide 0.3125 μM): 90.2% and 150.7832% and 85.04%; Percentage of viral RNA in RD cells (%) (EV71 [3]; polypeptide 0.625 μM): 113.2834% and 92.13% and 108.0728%; Percentage of viral RNA in RD cells (%) (EV71 [3]; polypeptide 1.25 μM): 93.12% and 79.48% and 58.29%; Percentage of viral RNA in RD cells (%) (EV71 [3]; polypeptide 2.5 μM): 24.4% and 38.77% and 23.45%; Percentage of viral RNA in RD cells (%) (EV71 [3]; polypeptide 5 μM): 21.2764% and 19.04% and 17.19%
CC[C@H](C)[C@H](NC(=O)[C@H](C)NC(=O)[C@H](CO)NC(=O)[C@H](CCCNC(=N)N)NC(=O)[C@H](CC(N)=O)NC(=O)[C@H](CC(N)=O)NC(=O)[C@H](Cc1ccc(O)cc1)NC(=O)[C@H](CCC(=O)O)NC(=O)[C@H](CCCNC(=N)N)NC(=O)[C@@H](NC(=O)[C@H](CC(C)C)NC(=O)[C@H](CCC(=O)O)NC(=O)[C@H](CO)NC(=O)CNC(=O)[C@H](CO)NC(=O)CNC(=O)[C@H](CCCNC(=N)N)NC(=O)[C@H](CCCNC(=N)N)NC(=O)[C@H](CCCNC(=N)N)NC(=O)[C@H](CCC(N)=O)NC(=O)[C@H](CCCNC(=N)N)NC(=O)[C@H](CCCNC(=N)N)NC(=O)[C@H](CCCCN)NC(=O)[C@H](CCCCN)NC(=O)[C@H](CCCNC(=N)N)NC(=O)CNC(=O)[C@@H](N)Cc1ccc(O)cc1)[C@@H](C)CC)C(=O)NCC(=O)N[C@@H](CC(N)=O)C(=O)N[C@H](C(=O)N[C@H](C(=O)N[C@@H](CCC(=O)O)C(=O)N[C@@H](C)C(=O)N[C@@H](CC(C)C)C(=O)N[C@@H](Cc1ccccc1)C(=O)N[C@@H](CCC(N)=O)C(=O)O)[C@@H](C)CC)[C@@H](C)O [SQ] | 10.3 µM | 134 µM | 104% | 98% | 101% | 94.4% | 90.1% | 96.6% | 105% | 99.5% | 106% | 70% | 103.4468% and 96.07% | 94.606% and 92.7401% | 103.1624% and 100.4524% | 103.9959% and 100.6225% | 94.07% and 98.81% | 101.1325% and 99.03% | 106.7734% and 95.3706% | 102.9859% and 103.7701% | Cell viability (%) (Vero cells; polypeptide 18.75 μM): 100.481% and 90.25%; Cell viability (%) (Vero cells; polypeptide 37.5 μM): 100.7644% and 90.65% and 80.6%; Cell viability (%) (Vero cells; polypeptide 75 μM): 90.36% and 95.75% and 70.31%; Cell viability (%) (Vero cells; polypeptide 150 μM): 80.35% and 60.9948%
